Test [1] concerns the target T1, FLT3 kinase (Homo sapiens, UniProt P36888).
T1 construct: purchased SignalChem
T1 sequence (P36888 27-993): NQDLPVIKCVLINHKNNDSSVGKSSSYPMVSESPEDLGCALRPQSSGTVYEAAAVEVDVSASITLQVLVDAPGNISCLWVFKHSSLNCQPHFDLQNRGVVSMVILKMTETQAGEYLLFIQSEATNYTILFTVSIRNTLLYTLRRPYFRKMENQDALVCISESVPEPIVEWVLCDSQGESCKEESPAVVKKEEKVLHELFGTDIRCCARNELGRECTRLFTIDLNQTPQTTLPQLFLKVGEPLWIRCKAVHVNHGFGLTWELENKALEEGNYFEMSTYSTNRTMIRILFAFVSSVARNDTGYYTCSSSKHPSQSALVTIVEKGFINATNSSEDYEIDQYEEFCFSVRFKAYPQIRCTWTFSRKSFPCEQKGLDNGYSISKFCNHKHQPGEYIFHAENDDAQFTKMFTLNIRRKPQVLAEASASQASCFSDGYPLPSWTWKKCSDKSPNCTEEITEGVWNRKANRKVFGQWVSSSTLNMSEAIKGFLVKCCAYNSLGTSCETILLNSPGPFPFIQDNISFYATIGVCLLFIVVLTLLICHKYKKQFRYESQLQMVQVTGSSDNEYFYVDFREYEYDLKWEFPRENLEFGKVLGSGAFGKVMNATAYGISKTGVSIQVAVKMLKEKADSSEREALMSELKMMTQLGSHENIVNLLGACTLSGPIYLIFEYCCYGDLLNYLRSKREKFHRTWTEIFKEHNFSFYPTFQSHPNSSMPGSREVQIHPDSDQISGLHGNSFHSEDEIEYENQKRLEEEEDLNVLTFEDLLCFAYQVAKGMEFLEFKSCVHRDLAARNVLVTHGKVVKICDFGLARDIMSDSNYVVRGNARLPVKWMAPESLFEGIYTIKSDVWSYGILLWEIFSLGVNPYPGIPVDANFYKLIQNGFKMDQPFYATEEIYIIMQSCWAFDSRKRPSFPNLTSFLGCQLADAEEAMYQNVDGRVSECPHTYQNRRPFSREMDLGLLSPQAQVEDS
Put plainly: FLT3 kinase assay (AlphaScreen). Type of test: biochemical. To be noted: read-out: Ranking of IC50 values, FLT3. The method, boiled down:
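Recombinant FLT3 (1.5 ng) phosphorylated biotinylated poly(Glu4:Tyr1) with 10 μM ATP in MOPS pH 7.0 buffer containing 10 mM MgCl2, 30 min at 30 °C, stopped with EDTA. Product detected by AlphaScreen; IC50 from duplicate serial dilutions.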

Test [2] relates to MV4-11 human acute myeloid leukemia cell with FLT3-ITD mutation. Put plainly: MV4-11 cell proliferation assay (CellTiter 96). It is filed as cell-based. Particulars: Homo sapiens, MV4-11, 72 h, MV4-11 cells, 72 hours treatment, CellTiter96; read-out: anti-proliferation activity MV4-11 (FLT3-ITD), IC50 ranking. The procedure, abridged: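 Cells seeded at 6500/well in IMDM with 10% heat-inactivated FBS, left overnight at 37 °C, 5% CO2, then exposed to increasing compound concentrations for 72 h. Viability read as absorbance at 490 nm after 2–4 h with CellTiter96 AQueous One reagent.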

Test [3] has as its system THP-1 human acute monocytic leukemia cell with NRAS G12D mutation. Put plainly: THP-1 cell proliferation assay (counter screen). Particulars: Homo sapiens, THP-1 cells, 72 hours treatment, CellTiter96, read-out: anti-proliferation activity THP-1 NRAS N12D, IC50 ranking. It is filed as cell-based. The method, boiled down:
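THP-1 cells (NRAS G12D, growth independent of class III RTK signaling) seeded at 5000 cells/well overnight, then exposed to increasing compound concentrations for 72 h at 37° C, 5% CO2. Viability read by CellTiter96 AQueous One reagent (2–4 h) as absorbance at 490 nm.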

Test [4] has as its system Molm-14 human acute myeloid leukemia cell with FLT3-ITD mutation. The test can be described thus: Molm-14 cell proliferation assay (CellTiter 96). Type of test: cell-based. To be noted: Homo sapiens; Molm-14 cells, 72 hours treatment, CellTiter96; read-out: anti-proliferation activity Molm-14 (FLT3-ITD), IC50 ranking. The procedure, abridged:
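Molm-14 (FLT3-ITD AML) cells in RPMI 1640 with 10% heat-inactivated FBS were seeded at 25000 cells/well, incubated overnight at 37° C, 5% CO2, then treated with increasing compound concentrations for 72 hours. Viability was read as absorbance at 490 nm after 2˜4 hours with CellTiter96 AQueous One reagent.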

Where only a bound is given, the exact number is not on record here.

For `C[C@@H]1CN(Cc2ccc(-c3cc4c(s3)Cc3c(-c5ccc6cnn(C)c6c5)n[nH]c3-4)cc2)C[C@H](C)O1` [Compound 54, (2S,6R)-2,6-dimethyl-4-(4-(3-(1-methyl-1H-indazol-6-yl)-1,4-dihydro-thieno[2′,3′:4,5]cyclopenta [1,2-c]pyrazol-6-yl)benzyl)morpholine], the IC50 was less than 1 nM in test [1], less than 30 nM in test [2], more than 10000 nM in test [3] and 30 to 100 nM in test [4].
Taken in the same sequence, the figures for `Cn1ncc2ccc(-c3n[nH]c4c3Cc3sc(C5=CCN(C(=O)N6CCOCC6)CC5)cc3-4)cc21` [Compound 57, (4-(3-(1-methyl-1H-indazol-6-yl)-1,4-dihydro-thieno[2′,3′:4,5]cyclopenta [1,2-c]pyrazol-6-yl)-3,6-dihydropyridin-1(2H)-yl) (morpholino)methanone] were less than 1 nM, less than 30 nM, more than 10000 nM and less than 30 nM.
Turning to `CC(C)n1ncc2ccc(-c3n[nH]c4c3Cc3sc(-c5ccc(CN6CCOCC6)cc5)cc3-4)cc21` [Compound 42, 4-(4-(3-(1-isopropyl-1H-indazol-6-yl)-1,4-dihydro-thieno[2′,3′:4,5]cyclopenta [1,2-c]pyrazol-6-yl)benzyl)morpholine], the IC50 in test [1] is less than 1 nM; in test [2], 30 to 100 nM; in test [3], more than 10000 nM; in test [4] it was 100 to 300 nM.
Taken in the same sequence, the figures for `Cn1ncc2ccc(-c3n[nH]c4c3Cc3sc(-c5ccc(C(=O)N6CCCC6)cc5)cc3-4)cc21` [Compound 38, (4-(3-(1-methyl-1H-indazol-6-yl)-1,4-dihydro-thieno[2′,3′:4,5]cyclopenta [1,2-c]pyrazol-6-yl)phenyl)(pyrrolidin-1-yl) methanone] were 1 to 10 nM, less than 30 nM, more than 10000 nM and 30 to 100 nM.
Taken in the same sequence, the figures for `C[C@@H]1CN(C(=O)c2ccc(-c3cc4c(s3)Cc3c(-c5ccc6cnn(C)c6c5)n[nH]c3-4)cc2)C[C@H](C)O1` [Compound 19, ((2S,6R)-2,6-dimethyl-morpholino)(4-(3-(1-methyl-1H-indazol-6-yl)-1,4-dihydrothieno[2′,3′:4,5]cyclopenta[1,2-c]pyrazol-6-yl)phenyl)methanone] were 1 to 10 nM, less than 30 nM, more than 10000 nM and less than 30 nM.
Taken in the same sequence, the figures for `C[C@@H]1CN(Cc2ccc(-c3cc4c(s3)Cc3c(-c5ccc6cnn(C)c6c5)n[nH]c3-4)cn2)C[C@H](C)O1` [Compound 9, (2S,6R)-2,6-dimethyl-4-((5-(3-(1-methyl-lH-indazol-6-yl)-1,4-dihydro-thieno[2′,3′:4,5]cyclopenta [1,2-c]pyrazol-6-yl)pyridin-2-yl)methyl) morpholine] were less than 1 nM, less than 30 nM, more than 10000 nM and less than 30 nM.
For `Cn1ncc2ccc(-c3n[nH]c4c3Cc3sc(C5CCNCC5)cc3-4)cc21` [Compound 96, 3-(1-methyl-1H-indazol-6-yl)-6-(piperidin-4-yl)-1,4-dihydrothieno [2′,3′:4,5]cyclopenta [1,2-c]pyrazole], the IC50 in test [1] is less than 1 nM; in test [2], less than 30 nM; in test [3], 300 to 1000 nM; in test [4], less than 30 nM.
On to `COc1cc(CN2CCOCC2)ccc1-c1cc2c(s1)Cc1c(-c3ccc4cnn(C)c4c3)n[nH]c1-2` [Compound 29, 4-(3-methoxy-4-(3-(1-methyl-1H-indazol-6-yl)-1,4-dihydrothieno [2′,3′:4,5]cyclopenta[1,2-c]pyrazol-6-yl)benzyl) morpholine], for which the IC50 in test [1] is less than 1 nM; in test [2], less than 30 nM; in test [3], more than 10000 nM; in test [4] it was 30 to 100 nM.
Regarding `CC(c1ccc(-c2cc3c(s2)Cc2c(-c4ccc5cnn(C)c5c4)n[nH]c2-3)cc1)N1CCOCC1` (stereo not drawn) [Compound 20, 4-(1-(4-(3-(1-methyl-1H-indazol-6-yl)-1,4-dihydro-thieno[2′,3′:4,5]cyclopenta [1,2-c]pyrazol-6-yl)phenyl)ethyl)morpholine], the IC50 was 1 to 10 nM in test [1], less than 30 nM in test [2], more than 10000 nM in test [3] and 30 to 100 nM in test [4].
Taken in the same sequence, the figures for `Cn1ncc2ccc(-c3n[nH]c4c3Cc3sc(-c5ccc(CN6CCOCC6)cc5)cc3-4)cc21` [Compound 8, 4-(4-(3-(1-methyl-1H-indazol-6-yl)-1,4-dihydro-thieno[2′,3′:4,5]cyclopenta [1,2-c]pyrazol-6-yl)benzyl) morpholine] were less than 1 nM, less than 30 nM, more than 10000 nM and 30 to 100 nM.
Consider `Cn1ncc2ccc(-c3n[nH]c4c3Cc3sc(-c5ccc(CN6CCCC6)cc5)cc3-4)cc21` [Compound 99, 3-(1-methyl-1H-indazol-6-yl)-6-(4-(pyrrolidin-1-ylmethyl)phenyl)-1,4-dihydrothieno[2′,3′:4,5] cyclopenta[1,2-c]pyrazole], for which the IC50 in test [1] was less than 1 nM; in test [2] it was less than 30 nM; in test [3] it was 1000 to 10000 nM; in test [4], less than 30 nM.
Take `Cn1ncc2ccc(-c3n[nH]c4c3Cc3sc(-c5ccc(CCN6CCOCC6=O)cc5)cc3-4)cc21` [Compound 66, 4-(4-(3-(1-methyl-1H-indazol-6-yl)-1,4-dihydro-thieno[2′,3′:4,5]cyclopenta [1,2-c]pyrazol-6-yl)phenethyl)morpholin-3-one]: the IC50 in test [1] is less than 1 nM; in test [2], less than 30 nM; in test [3], more than 10000 nM; in test [4] it was less than 30 nM.
Consider `Cn1ncc2ccc(-c3n[nH]c4c3Cc3sc(-c5csc(CN6CCOCC6)c5)cc3-4)cc21` [Compound 52, 4-((4-(3-(1-methyl-1H-indazol-6-yl)-1,4-dihydro-thieno[2′,3′:4,5]cyclopenta [1,2-c]pyrazol-6-yl)thiophen-2-yl)methyl) morpholine], for which the IC50 is less than 1 nM in test [1], less than 30 nM in test [2], more than 10000 nM in test [3] and 30 to 100 nM in test [4].
The like results for `Cn1ncc2ccc(-c3n[nH]c4c3Cc3sc(-c5ccc(CN6CC(F)(F)C6)cc5)cc3-4)cc21` [Compound 104, 6-(4-((3,3-difluoroazeti-din-1-yl)methyl)phenyl)-3-(1-methyl-1H-indazol-6-yl)-1,4-dihydrothieno [2′,3′:4,5]cyclopenta [1,2-c]pyrazole] were, in that order, 1 to 10 nM, 30 to 100 nM, 1000 to 10000 nM and 100 to 300 nM.
The like results for `Cn1ncc2ccc(-c3n[nH]c4c3Cc3sc(-c5cnc(C(=O)N6CCOCC6)nc5)cc3-4)cc21` [Compound 41, (5-(3-(1-methyl-1H-indazol-6-yl)-1,4-dihydrothieno[2′,3′:4,5]cyclopenta[1,2-c]pyrazol-6-yl)pyrimidin-2-yl) (morpholino)methanone] were, in that order, less than 1 nM, less than 30 nM, more than 10000 nM and less than 30 nM.

The values are drawn from US12448394B2, “Heterocyclic pyrazole derivatives as type III receptor tyrosine kinase inhibitors” (DEVELOPMENT CENTER FOR BIOTECHNOLOGY, priority 2019, dated 2025).
